Assay results reported in patent US10828289B2, “Hair follicle stem cell activation and hair growth” (THE REGENTS OF THE UNIVERSITY OF CALIFORNIA, priority 2016, dated 2020).
Entries after “also recorded” stand apart in the source; their conditions may differ.

How the values were obtained:
Format in all cases: in vivo, mouse
lactate = assay: LC-MS-based metabolomics of lactate after topical treatment; details: 48 hours, vs vehicle
Excerpt: (§1) Mice. Animals were acquired from Jackson Labs (K15-CrePR, Lgr5-CreER and Lgr6-CreER), Rutter Lab (Mpc^fl/fl) and Seth Lab (Ldha^fl/fl) and maintained under conditions set forth by IUCUC and ARC. For experiments that include analysis of the telogen stage of the hair cycle, animals were harvested at post-natal day 50, for telogen-anagen transition animals were harvested at day 70, and for anagen animals were harvested at post-natal day 90. For experiments that include analysis of transgenic animals, K15-CrePR animals were shaved and treated by intraperitoneal injections of mifepristone and Lgr5-CreER and Lgr6-CreER animals were shaved and treated with tamoxifen (10 mg/ml dissolved in sunflower seed oil, 2 mg per day for 3 days) during telogen (post-natal day 50), and monitored for hair regrowth following shaving. For FIGS. 6A-6G, wildtype C57BL/6J animals were shaved at post-natal day 50 and treated topically with Transderma Plo Gel Ultramax Base (TR220) (vehicle) or RCGD423 (50 uM) for indicated periods of time. […]
Mass spectrometry-based metabolomics analysis. […] The samples were analyzed with an UltiMate 3000RSLC (Thermo Scientific) coupled to a Q Exactive mass spectrometer (Thermo Scientific). […] Metabolites were quantified with TraceFinder 3.3 using accurate mass measurements (<3 ppm) and retention times.

c-Myc = assay: Immunoblotting of total protein preps from topically treated skin: c-Myc; details: 2 topical doses of 50 uM (48 hours), vs vehicle control
Excerpt: as §1, with “time. Both male and female animals were used in this study in approximately equal numbers with no apparent difference in phenotype between genders.” for “time.”
(§2) Histology, Immunostaining and Immunoblotting. […] Images were collected on an Olympus BX43 Upright Microscope and Zeiss Model Axio Imager M1 Upright Fluorescence Microscope. […]

hair cycle = assay: Topical treatment of shaved animals in telogen (day 50), hair cycle observation
Excerpt: Mice. Animals were acquired from Jackson Labs (K15-CrePR, Lgr5-CreER and Lgr6-CreER), Rutter Lab (Mpc^fl/fl) and Seth Lab (Ldha^fl/fl) and maintained under conditions set forth by IUCUC and ARC. For experiments that include analysis of the telogen stage of the hair cycle, animals were harvested at post-natal day 50, for telogen-anagen transition animals were harvested at day 70, and for anagen animals were harvested at post-natal day 90. For experiments that include analysis of transgenic animals, K15-CrePR animals were shaved and treated by intraperitoneal injections of mifepristone and Lgr5-CreER and Lgr6-CreER animals were shaved and treated with tamoxifen (10 mg/ml dissolved in sunflower seed oil, 2 mg per day for 3 days) during telogen (post-natal day 50), and monitored for hair regrowth following shaving. For FIGS. 6A-6G, wildtype C57BL/6J animals were shaved at post-natal day 50 and treated topically with Transderma Plo Gel Ultramax Base (TR220) (vehicle) or RCGD423 (50 uM) for indicated periods of time. Both male and female animals were used in this study in approximately equal numbers with no apparent difference in phenotype between genders. All phenotypes described are representative of a minimum of n=3 littermate pairs as indicated in the description of each experiment. No statistical measure was used to determine the sample size beforehand, nor were statistics used to measure effects, as the results were essentially positive or negative as represented in the figures. The results described include data from all treated animals. The investigators were not blinded to allocation during the experimental data collection, nor were the experiments randomized. The results shown were representative images from at least three independently treated animals, and genotyping was performed both before and after animal treatment for confirmation.

HFSCs = assay: Immunohistochemistry for Ki-67 in HFSCs after topical treatment; details: same tissue
Excerpt: as §1, with “time. Both male and female animals were used in this study in approximately equal numbers with no apparent difference in phenotype between genders.” for “time.”
as §2

Ldha = assay: Immunoblotting of total protein preps from topically treated skin: Ldha; details: 2 topical doses of 50 uM (48 hours), vs vehicle control
Excerpt: as §1, with “time. Both male and female animals were used in this study in approximately equal numbers with no apparent difference in phenotype between genders.” for “time.”
as §2

Stat-3 = assay: Immunostaining with phospho-Stat3 antibody in HFSCs after topical treatment
Excerpt: as §1, with “time. Both male and female animals were used in this study in approximately equal numbers with no apparent difference in phenotype between genders.” for “time.”
as §2

pStat5 = assay: IHC for pStat5 in topically treated skin; details: topical, shaved mice day 50, skin harvested 48 hours after treatment
Protocol: (§3) FIG. 5. Stimulation of Jak-Stat signaling and the hair cycle. RCGD423 was applied topically to shaved mice at day 50. 48 hours after treatment, the skin was harvested and prepared for IHC. […] Scale bars indicate 20 micrometers.
as §1, with “shaving.” for “shaving. For FIGS. 6A-6G, wildtype C57BL/6J animals were shaved at post-natal day 50 and treated topically with Transderma Plo Gel Ultramax Base (TR220) (vehicle) or RCGD423 (50 uM) for indicated periods of time.”
as §2

Ldh [1] = assay: In situ Ldh activity staining of skin sections after topical treatment; details: epidermis and dermis
Excerpt: as §1, with “time. Both male and female animals were used in this study in approximately equal numbers with no apparent difference in phenotype between genders. All phenotypes described are representative of a minimum of n=3 littermate pairs as indicated in the description of each experiment.” for “time.”

pStat1 = assay: IHC for pStat1 in topically treated skin; details: topical, shaved mice day 50, skin harvested 48 hours after treatment
Protocol: as §3
as §1, with “shaving.” for “shaving. For FIGS. 6A-6G, wildtype C57BL/6J animals were shaved at post-natal day 50 and treated topically with Transderma Plo Gel Ultramax Base (TR220) (vehicle) or RCGD423 (50 uM) for indicated periods of time.”
as §2

Ldh [2] = assay: Plate-reader Ldh activity assay on lysates from total epidermis after topical treatment; details: vs vehicle
Excerpt: as §1, with “shaving.” for “shaving. For FIGS. 6A-6G, wildtype C57BL/6J animals were shaved at post-natal day 50 and treated topically with Transderma Plo Gel Ultramax Base (TR220) (vehicle) or RCGD423 (50 uM) for indicated periods of time.”
Plate-reader Ldh assay. Ldh activity was determined in cell lysates by measuring the formation of soluble XTT formazan in direct relation to production of NADH over time at 475 nm at 37° C. using a Synergy-MX plate reader (Biotek Instruments). […] Protein content was determined using the BCA Protein Assay Kit (Thermo Scientific Pierce). […] Ldh activity was determined in cell lysates by measuring the change in absorbance of their common substrate or product, NADH, over time at 340 nm at 25° C. using a Synergy-MX plate reader (Biotek Instruments).

n-Myc = assay: Immunoblotting of total protein preps from topically treated skin: n-Myc; details: 2 topical doses of 50 uM (48 hours), vs vehicle control
Excerpt: as §1, with “time. Both male and female animals were used in this study in approximately equal numbers with no apparent difference in phenotype between genders.” for “time.”
as §2

[3] = topical treatment of animals in telogen (day 50)

Brc1ccc(Nc2nc(-c3ccccc3)cs2)cc1 [RCGD423]
lactate level (lactate): large increase | c-Myc protein levels (c-Myc): increased; also recorded: induced | hair cycle (hair cycle; [3]): robust acceleration of the hair cycle | interfollicular epidermis proliferation (hair cycle; [3]): minor hyperproliferation of the interfollicular epidermis | observed phenotype (entry into anagen) (hair cycle; topical, 50 uM, after 5 doses): pigmentation and hair growth, indicative of entry into anagen | Ki-67 in HFSCs (HFSCs): induction | Ldha protein levels (Ldha): increased; also recorded: induced | Stat-3 activation (phospho-Stat3 immunostaining) (Stat-3): activated | effect on pStat5 (pStat5): does not dramatically affect | Ldh activity, in situ staining (Ldh [1]): strong induction | effect on pStat1 (pStat1): does not dramatically affect | Ldh activity, in vitro measurement on lysates from total epidermis (Ldh [2]): increase in activity | n-Myc protein levels (n-Myc): increased; also recorded: induced
